Data: patent US8431613B2, “Memory fixation accelerator” (Research Foundation ITSUU Laboratory, priority 2004, dated 2013)
Marks after values point to notes of the source that are not given here.

System: Slc:Wistar male rats given scopolamine
Test: Passive avoidance reaction (shuttle type avoidance test box) in scopolamine-treated rats
Type: in vivo, rat
Conditions: for latent time compared with the control group: Example 2, scopolamine 0.25 or 0.5 mg/kg, drug treatment from the 2nd day
Description: 6-Week old Slc:Wistar male rats were used for the experiment after preliminary breeding including one week of quarantine. The animals were individually bred under an environment at a temperature of 22±3° C. and a humidity of 50±20% with illumination of 12 hours (8:00 to 20:00) for both the preliminary breeding and experimental periods, and the animals were given pellets (Labo MR Stock, Nihon Nosan Kogyo K.K.) and tap water ad libitum. The animals were divided into groups according to body weights as an index (10 animals/group), and trials for acquisition and reproduction of memory were performed. Each trial was performed by using a shuttle type avoidance test box. […] Each animal was put into the light room, time until the animal moved to the dark room (latent time) was measured up to 5 minutes, and when the rat moved to the darkroom, the partition was shut, and shock was given by electrification.
Each animal was subcutaneously given 0.5 mg/kg of scopolamine 30 minutes before the trial, and this procedure was continued for seven days. Scopolamine, which is an anticholinergic agent, is known to block the muscarinic acetylcholine receptor in the striate body and inhibit acquisition of new memory (Folia Pharmacol. Jpn., 97, pp. 351-359, 1991). From the third day, the test substance (Am80: 4-[(5,6,7,8-tetrahydro-5,5,8,8-tetramethyl-2-naphthalenyl)carbamoyl]benzoic acid, 10 mg/kg/day) was orally given 3 hours before the scopolamine treatment. With numerical values obtained, average and standard deviation were calculated for each group, and a homoscedasticity test was performed by F-test between the control group (no Am80 treatment) and Am80-treated group. When homoscedasticity was observed, presence or absence of significant difference was determined by Student's t-test, and when non-homoscedasticity was observed, presence or absence of significant difference was determined by Aspin-Welch's t-test.
A test was performed in the same manner as that of Example 1, except that scopolamine was given at a dose of 0.25 mg/kg or 0.5 mg/kg, and 2 mg/kg, 5 mg/kg or 12.5 mg/kg of Am80, 30 mg/kg of Tac101 (4-[(3,5-bis-trimethylsilylphenyl)-carboxamido]benzoic acid), and 10 mg/kg of HX630 (4-[2,3-(2,5-dimethyl-2,5-hexano)dibenzo[b,f][1,4]thiazepin-11-yl]benzoic acid) were given. Combinatory use of Am80 (5 mg/kg) and HX630 (10 mg/kg) was also similarly examined. Drug treatment was performed from the 2nd day.
In the same manner as that of Example 2, scopolamine was given at a dose of 0.25 mg/kg, and 10 mg/kg of 4-[5-(4,7-dimethylbenzofuran-2-yl)pyrrol-2-yl]benzoic acid (IT-K-1001) was orally given.

CC1(C)CCC(C)(C)c2cc3c(cc21)Sc1ccccc1N=C3c1ccc(C(=O)O)cc1 [HX630, 4-[2,3-(2,5-dimethyl-2,5-hexano)dibenzo[b,f][1,4]thiazepin-11-yl]benzoic acid]
latent time compared with the control group: gradually extended | Reaction latency (HX630 10 mg/kg/day from 2nd day, SCP 0.5 mg/kg/day, lapsed day 1): 18 s | Reaction latency (HX630 10 mg/kg/day from 2nd day, SCP 0.5 mg/kg/day, lapsed day 2): 21 s | Reaction latency (HX630 10 mg/kg/day from 2nd day, SCP 0.5 mg/kg/day, lapsed day 3): 30 s | Reaction latency (HX630 10 mg/kg/day from 2nd day, SCP 0.5 mg/kg/day, lapsed day 4): 33 s | Reaction latency (HX630 10 mg/kg/day from 2nd day, SCP 0.5 mg/kg/day, lapsed day 5): 51 s

C[Si](C)(C)c1cc(C(=O)Nc2ccc(C(=O)O)cc2)cc([Si](C)(C)C)c1 [Tac101, 4-[(3,5-bis-trimethylsilylphenyl)-carboxamido]benzoic acid]
latent time compared with the control group: gradually extended | Reaction latency (Tac101 30 mg/kg/day from 2nd day, SCP 0.5 mg/kg/day, lapsed day 1): 19 s | Reaction latency (Tac101 30 mg/kg/day from 2nd day, SCP 0.5 mg/kg/day, lapsed day 2): 21 s | Reaction latency (Tac101 30 mg/kg/day from 2nd day, SCP 0.5 mg/kg/day, lapsed day 3): 47 s | Reaction latency (Tac101 30 mg/kg/day from 2nd day, SCP 0.5 mg/kg/day, lapsed day 4): 69 s | Reaction latency (Tac101 30 mg/kg/day from 2nd day, SCP 0.5 mg/kg/day, lapsed day 5): 107 s

Cc1ccc(C)c2oc(-c3ccc(-c4ccc(C(=O)O)cc4)[nH]3)cc12 [IT-K-1001, 4-[5-(4,7-dimethylbenzofuran-2-yl)pyrrol-2-yl]benzoic acid]
effect on the action of scopolamine (reaction latency) (Example 3, 10 mg/kg oral, scopolamine 0.25 mg/kg): markedly inhibited the effect of scopolamine | Reaction latency (IT-K-1001 10 mg/kg/day oral, SCP 0.25 mg/kg/day, lapsed day 1): 22 s | Reaction latency (IT-K-1001 10 mg/kg/day oral, SCP 0.25 mg/kg/day, lapsed day 2): 11 s | Reaction latency (IT-K-1001 10 mg/kg/day oral, SCP 0.25 mg/kg/day, lapsed day 3): 106 s | Reaction latency (IT-K-1001 10 mg/kg/day oral, SCP 0.25 mg/kg/day, lapsed day 4): 115 s | Reaction latency (IT-K-1001 10 mg/kg/day oral, SCP 0.25 mg/kg/day, lapsed day 5): 206 s | Reaction latency (IT-K-1001 10 mg/kg/day oral, SCP 0.25 mg/kg/day, lapsed day 6): 291 s | Reaction latency (IT-K-1001 10 mg/kg/day oral, SCP 0.25 mg/kg/day, lapsed day 7): 300 s | Reaction latency (IT-K-1001 10 mg/kg/day oral, SCP 0.25 mg/kg/day, lapsed day 8): 281 s

CC1(C)CCC(C)(C)c2cc(NC(=O)c3ccc(C(=O)O)cc3)ccc21 [Am80, 4-[(5,6,7,8-tetrahydro-5,5,8,8-tetramethyl-2-naphthalenyl)carbamoyl]benzoic acid]
Reaction latency (Am80 2 mg/kg/day from 2nd day, SCP 0.5 mg/kg/day, lapsed day 1): 14 s | Reaction latency (Am80 2 mg/kg/day from 2nd day, SCP 0.5 mg/kg/day, lapsed day 2): 9 s | Reaction latency (Am80 2 mg/kg/day from 2nd day, SCP 0.5 mg/kg/day, lapsed day 3): 23 s | Reaction latency (Am80 2 mg/kg/day from 2nd day, SCP 0.5 mg/kg/day, lapsed day 4): 24 s | Reaction latency (Am80 2 mg/kg/day from 2nd day, SCP 0.5 mg/kg/day, lapsed day 5): 38 s | Reaction latency (Am80 5 mg/kg/day from 2nd day, SCP 0.25 mg/kg/day, lapsed day 1): 14 s | Reaction latency (Am80 5 mg/kg/day from 2nd day, SCP 0.25 mg/kg/day, lapsed day 2): 15 s | Reaction latency (Am80 5 mg/kg/day from 2nd day, SCP 0.25 mg/kg/day, lapsed day 3): 53 s | Reaction latency (Am80 5 mg/kg/day from 2nd day, SCP 0.25 mg/kg/day, lapsed day 4): 80 s | Reaction latency (Am80 5 mg/kg/day from 2nd day, SCP 0.25 mg/kg/day, lapsed day 5): 155 s | Reaction latency (Am80 5 mg/kg/day from 2nd day, SCP 0.5 mg/kg/day, lapsed day 1): 19 s | Reaction latency (Am80 5 mg/kg/day from 2nd day, SCP 0.5 mg/kg/day, lapsed day 2): 18 s | Reaction latency (Am80 5 mg/kg/day from 2nd day, SCP 0.5 mg/kg/day, lapsed day 3): 38 s | Reaction latency (Am80 5 mg/kg/day from 2nd day, SCP 0.5 mg/kg/day, lapsed day 4): 52 s | Reaction latency (Am80 5 mg/kg/day from 2nd day, SCP 0.5 mg/kg/day, lapsed day 5): 71 s | Reaction latency (Am80 10 mg/kg/day oral from 3rd day, scopolamine 0.5 mg/kg s.c., lapsed day 1 (before treatment)): 15 s | Reaction latency (Am80 10 mg/kg/day oral from 3rd day, scopolamine 0.5 mg/kg s.c., lapsed day 2 (before treatment)): 14 s | Reaction latency (Am80 10 mg/kg/day oral from 3rd day, scopolamine 0.5 mg/kg s.c., lapsed day 3): 26 s | Reaction latency (Am80 10 mg/kg/day oral from 3rd day, scopolamine 0.5 mg/kg s.c., lapsed day 4): 88 s | Reaction latency (second) (Am80 10 mg/kg/day oral from 3rd day, scopolamine 0.5 mg/kg s.c., lapsed day 5): 149** second | Reaction latency (second) (Am80 10 mg/kg/day oral from 3rd day, scopolamine 0.5 mg/kg s.c., lapsed day 6): 163** second | Reaction latency (second) (Am80 10 mg/kg/day oral from 3rd day, scopolamine 0.5 mg/kg s.c., lapsed day 7): 162** second | Reaction latency (Am80 12.5 mg/kg/day from 2nd day, SCP 0.5 mg/kg/day, lapsed day 1): 15 s | Reaction latency (Am80 12.5 mg/kg/day from 2nd day, SCP 0.5 mg/kg/day, lapsed day 2): 24 s | Reaction latency (Am80 12.5 mg/kg/day from 2nd day, SCP 0.5 mg/kg/day, lapsed day 3): 43 s | Reaction latency (Am80 12.5 mg/kg/day from 2nd day, SCP 0.5 mg/kg/day, lapsed day 4): 74 s | Reaction latency (Am80 12.5 mg/kg/day from 2nd day, SCP 0.5 mg/kg/day, lapsed day 5): 133 s | latent time, course from the start of the treatment (Example 1, Am80 10 mg/kg/day oral, scopolamine 0.5 mg/kg s.c., significant differences vs control from the 5th day): gradually extended | latent time compared with the control group: gradually extended
